Experimental data reported in patent US20160270393A1, “INSECT REPELLENT COMPOSITIONS AND METHODS OF USE” (Wageningen Universiteit, priority 2013, published 2016).
Entries after “also recorded” stand apart in the source; their conditions may differ. Where two headings read alike, the source gives them in different places.

Legend:
[1] = test system: Anopheles gambiae s.s. females; assay: Laboratory bioassay of repellent compounds (landings on heated, odour-baited plateau); format: in vivo; conditions: for effect on number of landings during eight minutes compared to ethanol control: 1% in ethanol on nylon strip, ten females, n=8, Mann-Whitney U, α=0.0042, listed in order of increasing efficacy; for repellent effect on host-seeking mosquitoes: 1% concentration
Protocol: The bioassay was set up in a room in which air temperature and relative humidity (RH) could easily be controlled. During experiments these parameters were continuously monitored using a Tinyview® data logger with display. Temperature was maintained at 24±1° C. and RH was kept between 60 and 75%.
Because repellents are volatile compounds, the risk of contamination of the setup is always present when testing these substances. Therefore, this bioassay uses replaceable 30×30×30 cm Bugdorm® cages as flight chambers. Although made of polyethylene (PE) and polypropylene (PP) which may potentially pick up the compounds tested, no contamination effects were observed, in contrast to a previously used cage made of metal and polycarbonate (see below).
Mosquitoes were attracted to a heated circular plateau (1) of diameter 15 cm acting as a landing surface, that was positioned underneath the gauze bottom of the Bugdorm® (2). Ten moist filter papers (3) of diameter 8 cm were applied on top of the heating plateau. Metal gauze was placed over the papers on which the strips releasing the odour blend were laid (see below). A transparent plastic cylinder was placed around the plateau to concentrate the warm, humid air within the area above the plateau.
A five-compound odour bait, which simulates the smell of a human foot (Mukabana et al., 2012), provided the necessary attractive background against which repellency could be measured. The individual compounds were released from nylon strips (cut from panty hoses: 90% polyamide, 10% spandex, Marie Claire®) (see Okumu et al. (2010b)). Concentrations were optimized for this release method: ammonia (25%), L-(+)-lactic-acid (88-92%), tetradecanoic acid (16% in ethanol), 3-methyl-1-butanol (0.01% in paraffin oil) and butan-1-amine (0.001% in paraffin oil). Strips measuring 26.5 cm×1 cm were impregnated with the attractive compounds by dipping them into an Eppendorf tube containing 1 ml of solution. Subsequently, they were stored at room temperature for three to five hours. Hereafter the strips were hung for half an hour under a fume hood to allow excess fluids to leak off. Finally they were packed in aluminium foil and stored at 4° C. in a refrigerator until use. Pulses of CO2 were released into the Bugdorm® through a teflon tube (4) that rested on top of the Bugdorm®. Each eight seconds, a two second pulse was released at 2.17 mL/sec (or 130 mL/min).
A glass screen (5, 6) was placed between the Bugdorm® and the place from where a researcher would carry out the behavioural observations. In this way, skin and breath emanations from the researcher were prevented from interfering directly with the mosquitoes inside the flight chamber. In the ceiling of the experimental room a fan created a gentle suction to carry off any volatiles emitted by both the experimental operator and the setup.
Repellence was measured by releasing a number of female Anopheles gambiae s.s. mosquitoes into the cage. The mosquitoes were highly attracted to the warm area on the bottom of the Bugdorm® cage and they would land and probe with their proboscis through the gauze in search of a blood-host.
A potential repellent was released from a nylon strip that was prepared identically to the method used for attractive compounds, with the exception that the strips were not hung up under a fume hood but stored in Eppendorf tubes at 4° C. directly after their preparation. The impregnated nylon strips with the repellents were taken out of their solution just before the start of the experiment and allowed to leak out on a piece of filter paper for 10 s before they were placed in the experimental setup. Strips were laid directly on the gauze bottom of the Bugdorm®, in a circle within the circular area under which the attractant blend was released.
After one minute of acclimatization time, the number of landings within the circular area formed by the treated strip was counted for a period of eight minutes. […]

[2] = test system: An. gambiae s.s., Mbita strain; conditions: comparison statement; DEET not tested in this setup; cited from earlier work
[3] = test system: An. gambiae s.s., Mbita strain; assay: Semi-field testing in MalariaSphere (push / push-pull, trap catches inside and outside experimental house); format: in vivo, Anopheles gambiae s.s.; set-up: Reduction (mosquitoes trapped indoors vs control): concentration or dose not given beside the values; conditions: for Indoors Mean (SEM) no. mosquitoes / Indoors Percentage trapped / Reduction (mosquitoes trapped indoors vs control) / Outdoors Mean (SEM) no. mosquitoes / Outdoors Percentage trapped: n=6; for spatial repellent effect: inventors' observation, repellent traps spaced about 4-5 meters apart
Description: Mosquitoes (An. gambiae s.s., Mbita strain; henceforth termed An. gambiae) were reared under ambient atmospheric conditions in screenhouses (larvae) and holding rooms (adults) at the Thomas Odhiambo Campus (TOC) of the International Centre of Insect Physiology and Ecology (ICIPE) located near Mbita Point township in western Kenya. Mosquito eggs were placed in plastic trays containing filtered water from Lake Victoria. All larval instars were fed on Tetramin® baby fish food which was supplied thrice per day. Pupae were collected daily and placed in mesh-covered cages (30×30×30 cm) prior to adult emergence. Adult mosquitoes were fed on 6% glucose solution through wicks made from adsorbent tissue paper.
Four to six day old female mosquitoes that had no prior access to blood were used for the semi-field experiments. The mosquitoes were collected from the colony at 12:00 h each day and stored for eight hours in the colony room with access to water on cotton wool. Within 15 min. before the start of the experiment the cups with the mosquitoes were transported to the MalariaSphere.
The experiments were conducted in Kenya at the Mbita Point Research & Training Centre of the International Centre of Insect Physiology and Ecology (ICIPE). Experiments took place in the MalariaSphere, a screenhouse into which a traditional house was built surrounded by natural vegetation (see Knols et al. (2002)). […] The MalariaSphere was set up as described by Knols et al. (2002) with as only modification that no breeding sites were present.
In the experiment the effects of attractant-baited traps and the dispersal of repellents around the traditional house were tested. Eight different setups were tested. During all tests, one attractant-baited trap (see below) was placed inside the experimental house to represent a human being. The house entry of the mosquitoes was measured by the number of mosquitoes caught by the trap inside the house.
Each night at 20:00 h, 200 female mosquitoes were released into the MalariaSphere. At 06:30 h the next morning the experiment was terminated by closing and switching off all traps. The traps were then placed in a freezer for several minutes to inactivate the mosquitoes, after which the number of trapped mosquitoes was determined.
The study compared the effect of three different repellents; in push-only situations, as well as in situations in which both the repellent and the attractive elements were present. […] Open circles represent a MMX trap baited with attractant. Filled circles represent a MMX trap dispersing the repellent. The asterisk indicates the mosquito release point. The numbers of the treatments correspond to the following:
Each setup was tested during six different nights, thus a total of 48 tests was carried out, during the same number of nights. The order of the tests was not fully randomized in order to minimize the risk of contamination of the MalariaSphere with the odours used.
Besides PMD, catnip essential oil (e.o.) and delta-undecalactone (dUDL) were used as repellents. Strips were impregnated with 40% solutions (catnip e.o. and dUDL were dissolved in paraffin oil) as described below.
Each night 200 mosquitoes were released from one central point between the entrance of the screenhouse and the experimental hut (see FIG. 3).
Mosquito Magnet® X (MM-X) traps (Kline (1999), Njiru et al (2006)) were baited with CO2 and a five-compound odour blend, which simulates the smell of a human foot (Mukabana et al., 2012). The individual compounds of the attractive blend were released from nylon strips (cut from panty hoses: 90% polyamide, 10% spandex, Marie Claire®) (Okumu et al. (2010b)). Concentrations were optimized for this setup and release method: ammonia (2.5% in water), L-(+)-lactic-acid (88-92%), tetradecanoic acid (0.000032% in ethanol), 3-methyl-1-butanol (0.000001% in water) and butan-1-amine (0.001% in paraffin oil) (see Table 1). […]

[4] = background statement; cited from earlier work
[5] = push only, 40% solution on strip, 200 mosquitoes released per night
[6] = push only, 200 released per night

SMILES | effect on number of landings during eight minutes compared to ethanol control [1] | Indoors Mean (SEM) no. mosquitoes [3, 5] | Indoors Percentage trapped [3, 6] [%] | Outdoors Mean (SEM) no. mosquitoes ([3]; push-pull) | Outdoors Percentage trapped ([3]; push-pull) [%] | solubility [4] | repellent effect on host-seeking mosquitoes [1] | spatial repellent effect [3] | further results
CC(=O)CCC=C(C)C [6-methyl-5-hepten-2-one] | significantly reduced the number of landings | – | – | – | – | – | – | – | –
CCN(CC)C(=O)c1cccc(C)c1 [DEET, N,N-diethyl-meta-toluamide] | significantly reduced the number of landings | – | – | – | – | – | – | – | spatial repellent effect [2]: little or no spatial repellent effect; also recorded: no spatial effect on distances from the human skin greater than a few millimeters
CC1CCC(C(C)(C)O)C(O)C1 (stereo not drawn) [PMD, p-Menthane-3,8-diol, reference compound] | significantly reduced the number of landings | 44.5 (5.6) b | 22.3 | 125.0 (13.8) | 62.5 | – | – | – | Reduction (mosquitoes trapped indoors vs control) ([3]; push only): 45.7%; Indoors Mean (SEM) no. mosquitoes ([3]; push-pull (repellent plus attractant-baited traps outside), 200 released per night): 6.8 (1.2) c, d; Indoors Percentage trapped ([3]; push-pull, 200 released per night): 3.4%; Reduction (mosquitoes trapped indoors vs control) ([3]; push-pull): 91.7%
C=CC(C)(O)CCC=C(C)C (stereo not drawn) [linalool] | significantly reduced the number of landings | – | – | – | – | – | – | – | –
CCCCCC1CCCC(=O)O1 (stereo not drawn) [δ-decalactone, 6-pentyloxan-2-one] | significantly reduced the number of landings | – | – | – | – | solubility in alcohols or oils | strong repellent effect | significant spatial repellent effect; also recorded: significant repellent effect from a distance of at least several decimeters | –
CCCCCCC1CCCC(=O)O1 (stereo not drawn) [δ-undecalactone, 6-hexyloxan-2-one] | significantly reduced the number of landings | 15.2 (2.5) c(d) | 7.6 | 122.8 (7.1) | 61.4 | solubility in alcohol | strong repellent effect | significant spatial repellent effect; also recorded: significant repellent effect from a distance of at least several decimeters | Reduction (mosquitoes trapped indoors vs control) ([3]; push only, listed as dUDL): 81.5%; Reduction (mosquitoes trapped indoors vs control) ([3]; push only, listed as delta-undecalactone): 81.5%; Indoors Mean (SEM) no. mosquitoes ([3]; push-pull (repellent plus attractant-baited traps outside), 200 released per night, listed as dUDL): 3.7 (0.7) d; Indoors Mean (SEM) no. mosquitoes ([3]; push-pull (repellent plus attractant-baited traps outside), 200 released per night, listed as delta-undecalactone): 3.7 (0.7); Indoors Percentage trapped ([3]; push-pull, 200 released per night, listed as dUDL): 1.9%; Indoors Percentage trapped ([3]; push-pull, 200 released per night, listed as delta-undecalactone): 1.9%; Reduction (mosquitoes trapped indoors vs control) ([3]; push-pull, listed as dUDL): 95.5%; Reduction (mosquitoes trapped indoors vs control) ([3]; push-pull, listed as delta-undecalactone): 95.5%
